Source: patent publication US7368582B2, “Amidomethyl-substituted 2-(4-sulfonylamino)-3-hydroxy-3,4-dihydro-2H-chromen-6-yl compounds, a process and intermediates for their production, and pharmaceutical compositions containing them” (Solvay Pharmaceuticals GmbH, priority 2003, dated 2008)

Key:
Kv 1.5-potassium channel = molecular target: T1, Kv 1.5-potassium channel (Homo sapiens, UniProt P22460); experiment: In-vitro Kv 1.5-potassium channel-blocking effect (Rb+ outflow from CHO cells, atomic absorption spectroscopy); type: cell-based; details: CHO cells stably expressing Kv 1.5, read-out: IC50 (Kv1.5-potassium channel-blocking effect, concentration of half-maximum inhibition)
T1 construct: expressed in transfected cells
Method: 1. In-Vitro Investigation of the Kv 1.5-Potassium Channel-Blocking Effect of the Substances
In this test model, a cell line of egg cells of the Chinese hamster (=“Chinese hamster oocytes”, “CHO”) is used which originates from a single cell and stably expresses the Kv 1.5-channel. By incubation overnight in a nutrient medium containing RbCl or a “loading buffer” (all values in mM: RbCl 5, NaCl 140, CaCl2 2, MgSO4 1, HEPES buffer 10, glucose 5) the aforementioned oocytes are loaded with Rb^+ under the influence of Na^+/K^+-ATPase. Thereafter, a portion of the oocytes is incubated as a reference standard in the absence of an inhibitor, while another portion of the oocytes is incubated in the presence of the respective inhibitory test substance of Formula I. Then the oocytes are depolarized by increasing the extracellular potassium-ion concentration, which causes the Kv 1.5-potassium channels of the oocytes to open. In the absence of an inhibitor, the Rb^+ ions flow through the Kv 1.5-potassium channels into the liquid surrounding them. In the presence of an inhibitory test substance of Formula I, on the other hand, the Rb^+ ions remain locked within the oocytes. The extent of the Kv 1.5-potassium channel-blocking effect of the test substances of Formula I is determined by measuring the Rb^+ ion concentration in the liquid surrounding them by means of atomic absorption spectroscopy against a reference standard.
Chinese hamster oocytes (see above) were cultivated in a known, RbCl-containing nutrient medium for CHO-cells and placed in the sample wells of a 96-sample capacity sample plate (“96 well plate”). The oocytes were allowed to grow overnight in order to obtain monolayers of the oocytes. Then the nutrient medium was pipetted off, and each sample well was washed three times with 100 μl portions of a preincubation buffer of low potassium-ion concentration (all values in mM: KCl 5, NaCl 140, CaCl2 2, MgSO4 1, HEPES buffer 10, glucose 5). Then 50 μl of a solution of the respective test substance (stock solution in DMSO, dilution with preincubation buffer, final concentration in the test batch 10 μM) or of the solvent (as negative controls) was added to each sample well and incubated for 10 min. in each case at room temperature. Then 50 μl of a stimulation buffer with elevated potassium-ion concentration (KCl 145 mM, NaCl 0 mM, otherwise as preincubation buffer) was added to each sample well and the samples were then incubated for a further 10 min. at room temperature. In each case, 80 μl of the liquid surrounding the oocytes from each sample well was then transferred separately to the sample wells of an analysis sample plate, and the Rb^+ ion concentration in the liquids was determined by atomic absorption spectroscopy. The test substances were each double-tested. The signal section which represented the Kv 1.5 component of the Rb^+ outflow was defined by using as positive control the known potassium channel blocker 4-AP in a high concentration (100×IC50 for the Kv 1.5 channel). This made it possible to determine which portion of the Rb^+ outflow was dependent on the influence of the 4-AP and therefore is to be assigned to the Kv 1.5 channel. For the substances which in the concentration of 10 μM used led to a reduction in the Rb^+ outflow of at least 50%, additional tests were performed with lower concentrations of the test substances in order to be able to determine the half-maximum effective concentration. In each case the concentration of half-maximum inhibition of the test substances of Formula I (IC50) was given as characteristic variable.

ventricle of guinea pigs = experiment: Functional effectiveness on guinea-pig hearts in vivo (ERP, QT, QRS, systolic blood pressure); design: species or system guinea pig (Dunkin-Hartley); details: 1 min. after 10 μmole/kg i.v.; for QRS / QT / syst. blood pressure (change): guinea pigs; for syst. blood pressure (change): minus effects due to the vehicle, negative values indicate reduction; for ERP: ventricle of guinea pigs, negative values indicate shortening
Excerpt: 4. Investigation of the Functional Effectiveness of the Substances on Guinea-Pig Hearts in Vivo
In the test model shown below, it was shown that the substances according to the invention at most have slight undesirable proarrhythmic effects on repolarization in the ventricle. To this end, the influence of the compounds of Formula I on the effective refractory period (ERP) and other influencing variables on guinea-pig hearts in vivo were investigated. In this test model, non-selective potassium channel blockers not in accordance with the invention, which also block HERG and/or KvLQT1 channels, result in undesirable prolongation of the ERP and the QT time on an electrocardiogram (═ECG). The QT time is likewise a measurement of the repolarization in the heart. Prolongations of both the ERP and the QT time, respectively, which are due to the substances were independently interpreted as indications of the risk of the occurrence of undesirable torsade-de-pointes arrhythmias. Furthermore, the QRS interval also was determined in each case from the ECG as a measurement of the ventricular rate of spread of stimulus. Even a prolongation of the QRS interval caused by a test substance is connected with an increased risk of undesirable pro-arrhythmic side-effects. Therefore in this test model the lack of an ERP and QT time prolongation signifies a low risk, but the occurrence of a relevant ERP and QT prolongation on the other hand signifies an elevated risk of undesirable pro-arrhythmic effects. Also the lack of a prolongation of the QRS interval which is due to the substances due to the substances of Formula I investigated indicates a low risk of undesirable pro-arrhythmic side-effects, since lack of QRS prolongation indicates an undisturbed spread of stimulus in the ventricle. Conversely, a QRS prolongation, which is typically triggered by Class I antiarrhythmic drugs indicates slowing of the conduction rate and may promote the occurrence of ventricular tachycardias to ventricular fibrillation.
Male guinea pigs (Dunkin-Hartley from Charles River) were anaesthetized (ketamine 50 mg/kg, xylazine 10 mg/kg) and each of them was provided with a venous access via one jugular vein for administration of compounds of Formula I or a vehicle. A bipolar stimulation catheter was fed into the right ventricle of the guinea pigs via the other jugular vein (stimulation frequency 5 Hz). The arterial blood pressure was measured by a catheter located in the carotid artery which was connected to a Statham pressure transducer. The ECG was recorded via needle electrodes. The measured data were digitized via an analog/digital converter, recorded on a computer with suitable software (Ponemah Physiology Platform from Gould, USA) and printed out in parallel on a multichannel printer. After an equilibration period of 45 min., increasing doses of the compounds of Formula I or of the vehicle were administered intravenously (=i.v.) to the guinea pigs at 12-minute intervals. Before the first administration and in each case one minute after administration of increasing doses (0.1−max. 30 μmole/kg) of the substances of Formula I, the effective refractory period was measured. For this, after five normal stimuli in each case an additional pulse was applied and the elapsed time thereof from the preceding pulse was increased until a heart action was triggered. The observed time interval corresponds to the ERP of the ventricular myocardium.
In order to detect possible effects of the test substances on the blood pressure, in the same test model after each administration of substance the systolic and diastolic blood pressure was determined and compared with the previous blood-pressure level. The parameters were recorded automatically 1 and 8 min. after each administration of substance.
Only statistically significant effects were listed, with a t-test with a significance limit of P<0.05 being used for the statistical testing.

T1 sequence (P22460 whole entry): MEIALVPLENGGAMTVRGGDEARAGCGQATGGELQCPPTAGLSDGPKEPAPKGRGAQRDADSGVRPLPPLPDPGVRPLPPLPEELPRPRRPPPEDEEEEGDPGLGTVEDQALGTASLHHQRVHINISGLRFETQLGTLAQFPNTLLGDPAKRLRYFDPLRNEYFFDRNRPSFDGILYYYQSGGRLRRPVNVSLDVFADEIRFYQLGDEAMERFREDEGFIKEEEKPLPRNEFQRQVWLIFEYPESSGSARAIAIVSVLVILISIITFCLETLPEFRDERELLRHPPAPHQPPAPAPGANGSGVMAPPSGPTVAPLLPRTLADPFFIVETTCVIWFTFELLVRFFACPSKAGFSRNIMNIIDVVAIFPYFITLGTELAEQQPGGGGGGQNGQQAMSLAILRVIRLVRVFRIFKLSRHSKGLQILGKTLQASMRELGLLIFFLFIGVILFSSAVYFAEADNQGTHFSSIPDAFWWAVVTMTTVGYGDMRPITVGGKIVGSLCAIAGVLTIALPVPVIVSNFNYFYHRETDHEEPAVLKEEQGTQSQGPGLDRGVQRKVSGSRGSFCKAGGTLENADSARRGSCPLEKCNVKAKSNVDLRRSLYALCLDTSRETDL

Compound: CC1(C)Oc2ccc(CC(=O)NC3CCCc4ccccc43)cc2C(NS(=O)(=O)c2cccc(F)c2)C1O (mixture of isomers) [Example 13]
- IC50 (Kv 1.5-potassium channel): 6500 nM
- QRS (ventricle of guinea pigs): n.s.
- QT (ventricle of guinea pigs): n.s.
- syst. blood pressure (change) (ventricle of guinea pigs): n.s.
- ERP (ventricle of guinea pigs): n.s.

Compound: CCc1ccc(S(=O)(=O)N[C@@H]2c3cc(CC(=O)N[C@@H]4CCCc5ccccc54)ccc3OC(C)(C)[C@H]2O)cc1 [Example 2, 2-((3S,4R)-4-{[(4-ethylphenyl)sulfonyl]amino}-3-hydroxy-2,2-dimethyl-3,4-dihydro-2H-chromen-6-yl)-N-[(1R)-1,2,3,4-tetrahydronaphth-1-yl]acetamide]
- IC50 (Kv 1.5-potassium channel): 2000 nM
- QRS (ventricle of guinea pigs): n.s.
- QT (ventricle of guinea pigs): n.s.
- syst. blood pressure (change) (ventricle of guinea pigs): n.s.
- ERP (ventricle of guinea pigs): n.s.

Compound: CCc1ccc(S(=O)(=O)N(CC(C)(C)C)C2c3cc(CC(=O)NCc4ccccc4)ccc3OC(C)(C)C2O)cc1 (stereo not drawn) [Example 4, N-benzyl-2-{4-[[(4-ethylphenyl)sulfonyl](neopentyl)amino]-3-hydroxy-2,2-dimethyl-3,4-dihydro-2H-chromen-6-yl}acetamide]
- IC50 (Kv 1.5-potassium channel): 1600 nM
- QRS (ventricle of guinea pigs): n.s.
- QT (ventricle of guinea pigs): n.s.
- syst. blood pressure (change) (ventricle of guinea pigs): n.s.
- ERP (ventricle of guinea pigs): n.s.

Compound: CCc1ccc(S(=O)(=O)N(CC(C)(C)C)[C@@H]2c3cc(CC(=O)NCc4ccccc4)ccc3OC(C)(C)[C@H]2O)cc1 [Example 7]
- IC50 (Kv 1.5-potassium channel): 1500 nM
- QRS (ventricle of guinea pigs): n.s.
- QT (ventricle of guinea pigs): n.s.
- syst. blood pressure (change) (ventricle of guinea pigs): −15.3 mm Hg
- ERP (ventricle of guinea pigs): -8.2 ms

Compound: CCc1ccc(S(=O)(=O)N(CC(C)(C)C)[C@H]2c3cc(CC(=O)NCc4ccccc4)ccc3OC(C)(C)[C@@H]2O)cc1 [Example 8]
- IC50 (Kv 1.5-potassium channel): 500 nM
- QRS (ventricle of guinea pigs): n.s.
- QT (ventricle of guinea pigs): n.s.
- syst. blood pressure (change) (ventricle of guinea pigs): −10.7 mm Hg
- ERP (ventricle of guinea pigs): n.s.

Compound: CCc1ccc(S(=O)(=O)N[C@@H]2c3cc(CC(=O)N[C@H]4CCCc5ccccc54)ccc3OC(C)(C)[C@H]2O)cc1 [Example 9]
- IC50 (Kv 1.5-potassium channel): 2900 nM

Compound: CCc1ccc(S(=O)(=O)N(CC(C)(C)C)C2c3cc(CC(=O)NCCc4ccccc4)ccc3OC(C)(C)C2O)cc1 (stereo not drawn) [Example 10]
- IC50 (Kv 1.5-potassium channel): 1600 nM
- QRS (ventricle of guinea pigs): n.s.
- QT (ventricle of guinea pigs): n.s.
- syst. blood pressure (change) (ventricle of guinea pigs): −15.9 mm Hg
- ERP (ventricle of guinea pigs): -8.0 ms

Compound: CCc1ccc(S(=O)(=O)NC2c3cc(CC(=O)N4CCN(c5ccccc5)CC4)ccc3OC(C)(C)C2O)cc1 (stereo not drawn) [Example 16]
- IC50 (Kv 1.5-potassium channel): 6300 nM
- QRS (ventricle of guinea pigs): n.s.
- QT (ventricle of guinea pigs): n.s.
- syst. blood pressure (change) (ventricle of guinea pigs): −8.6 mm Hg
- ERP (ventricle of guinea pigs): -7.5 ms
